Legend:
[1] = system: TRZAWR (Wheat, Winter, cv Riband); experiment: Postemergence herbicidal evaluation; type: in vivo, Triticum aestivum; conditions: postemergence
Outline: (§1)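 Seedlings grown about two weeks in flats, sprayed, then kept under standard greenhouse care. Rated visually 4–5 weeks after treatment on a 0–9 scale (stand, vigour, malformation, size, chlorosis, overall appearance) relative to untreated control; repeat tests averaged.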

[2] = system: ABUTH (Abutilon theophrasti); experiment: Preemergence herbicidal evaluation; type: in vivo, Medic.; conditions: preemergence, rated 4-5 weeks after treatment
[3] = system: MOOVA (Monochoria vaginalis); experiment: Flooded paddy, preemergence weed control; type: in vivo, Presl.; conditions: rated 3-4 weeks after treatment, 0-9 rating scale
Outline: (§2)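 Scoring used a 0-9 visual scale relative to control. Before that, seeds or propagules were planted shallowly in silt loam and flooded to 1.5–3 cm, a depth maintained throughout, with greenhouse care during the test.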

[4] = system: ECHORC (Echinochloa oryzoides); experiment: Flooded paddy, preemergence weed control; type: in vivo, Echinochloa oryzoides (Ard.) Fritsch.; conditions: rated 3-4 weeks after treatment, 0-9 rating scale
Outline: as §2

ZEAMX (Corn, Field) = experiment: Preemergence herbicidal evaluation; type: in vivo, Zea mays, L.; conditions: preemergence, rated 4-5 weeks after treatment
CYPIR (Cyperus iria) = experiment: Flooded paddy, preemergence weed control; type: in vivo; conditions: rated 3-4 weeks after treatment, 0-9 rating scale
Outline: as §2

[5] = system: IPOHE (Ipomoea hederacea); experiment: Preemergence herbicidal evaluation; type: in vivo, (L.) Jacq.; conditions: preemergence, rated 4-5 weeks after treatment
[6] = system: AMBEL (Ambrosia artemisifolia); experiment: Preemergence herbicidal evaluation; type: in vivo, L.; conditions: preemergence, rated 4-5 weeks after treatment
Outline: (§3)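 Visual 0–9 rating versus control (stand, vigor, malformation, size, chlorosis, overall appearance), scored four to five weeks post-treatment. Preemergence spray of aqueous acetone solution onto freshly seeded soil cups; plants grown under conventional greenhouse care.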

[7] = system: CASOB (Cassia obtusifolia); experiment: Preemergence herbicidal evaluation; type: in vivo, L.; conditions: preemergence, rated 4-5 weeks after treatment
Outline: as §3

[8] = system: CHEAL (Chenopodium album); experiment: Preemergence herbicidal evaluation; type: in vivo, L.; conditions: preemergence, rated 4-5 weeks after treatment
Outline: as §3

SETVI (Setaria viridis) = experiment: Postemergence herbicidal evaluation; type: in vivo, (L.) Beau; conditions: postemergence
Outline: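 ~2-wk seedlings; spray 0.0040–1.000 kg/ha in 50/50 acetone/water + 0.5% TWEEN 20, 40 psi nozzle. Greenhouse hold; visual 0–9 rating vs control at 4–5 wk; multiple tests averaged.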

[9] = system: ECHCG (Echinochloa crus-galli); experiment: Postemergence herbicidal evaluation; type: in vivo, (L.) Beau; conditions: postemergence
Outline: as §1

[10] = system: GLXMAW (Soybean, Williams); experiment: Preemergence herbicidal evaluation; type: in vivo, Glycine max, (L.) Merr. cv Williams; conditions: preemergence, rated 4-5 weeks after treatment
ORYSAT (Rice, Tebonnet) = experiment: Flooded paddy, post-transplant rice tolerance; type: in vivo, Oryza sativa, (L.) Tebonnet; conditions: flooded paddy, post-transplant rice, rated 3-4 weeks after treatment, 0-9 rating scale
Outline: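 Visual 0-9 rating against a control, covering stand, vigor, malformation, size, chlorosis and overall appearance. Treatment was applied after transplanting paired ten-day-old seedlings into flooded silt loam, with water kept 1.5 to 3 cm deep on greenhouse benches.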

[11] = system: SAGPY (Sagittaria pygmaea); experiment: Flooded paddy, preemergence weed control; type: in vivo, L.; conditions: rated 3-4 weeks after treatment, 0-9 rating scale
Outline: as §2

Cn1c(C(F)(F)F)cc(=O)n(-c2ccc3snc(-c4ccoc4)c3c2)c1=O [Compound 83, 3-[3-(3-furyl)-1,2-benzisothiazol-5-yl]-1-methyl-6-(trifluoromethyl)uracil]
5.0: Preemergence herbicidal rating ZEAMX (ZEAMX (Corn, Field); rate 0.1250 kg/ha) | Preemergence herbicidal rating IPOHE ([5]; rate 0.1250 kg/ha)
5.5: Preemergence herbicidal rating IPOHE ([5]; rate 0.2500 kg/ha)
4.0: Preemergence herbicidal rating CHEAL ([8]; rate 0.0620 kg/ha) | SETVI herbicidal rating (SETVI (Setaria viridis); rate 0.0620 kg/ha)
2.0: TRZAWR herbicidal rating ([1]; rate 0.0320 kg/ha) | Preemergence herbicidal rating ABUTH ([2]; rate 0.0620 kg/ha) | ECHCG herbicidal rating ([9]; rate 0.0320 kg/ha) | herbicidal rating, ORYSAT (rice tolerance) (ORYSAT (Rice, Tebonnet); rate 0.0320 kg/ha) | herbicidal rating, ORYSAT (rice tolerance) (ORYSAT (Rice, Tebonnet); rate 0.1250 kg/ha)
9.0: Preemergence herbicidal rating ABUTH ([2]; rate 0.2500 kg/ha) | herbicidal rating, MOOVA ([3]; rate 0.0320 kg/ha) | herbicidal rating, MOOVA ([3]; rate 0.1250 kg/ha) | Preemergence herbicidal rating AMBEL ([6]; rate 0.2500 kg/ha) | Preemergence herbicidal rating CHEAL ([8]; rate 0.1250 kg/ha) | Preemergence herbicidal rating CHEAL ([8]; rate 0.2500 kg/ha)
1.0: Preemergence herbicidal rating CASOB ([7]; rate 0.2500 kg/ha)
2.5: Preemergence herbicidal rating GLXMAW ([10]; rate 0.1250 kg/ha)
7.0: herbicidal rating, ECHORC ([4]; rate 0.1250 kg/ha)
6.0: herbicidal rating, ECHORC ([4]; rate 0.0320 kg/ha) | Preemergence herbicidal rating ZEAMX (ZEAMX (Corn, Field); rate 0.2500 kg/ha) | Preemergence herbicidal rating AMBEL ([6]; rate 0.0620 kg/ha) | Preemergence herbicidal rating GLXMAW ([10]; rate 0.2500 kg/ha)
3.0: TRZAWR herbicidal rating ([1]; rate 0.0620 kg/ha) | Preemergence herbicidal rating ZEAMX (ZEAMX (Corn, Field); rate 0.0620 kg/ha) | herbicidal rating, CYPIR (CYPIR (Cyperus iria); rate 0.1250 kg/ha) | Preemergence herbicidal rating IPOHE ([5]; rate 0.0620 kg/ha) | SETVI herbicidal rating (SETVI (Setaria viridis); rate 0.0320 kg/ha) | ECHCG herbicidal rating ([9]; rate 0.0620 kg/ha)
0.0: herbicidal rating, MOOVA ([3]; rate 0.0080 kg/ha) | herbicidal rating, ECHORC ([4]; rate 0.0080 kg/ha) | herbicidal rating, CYPIR (CYPIR (Cyperus iria); rate 0.0080 kg/ha) | herbicidal rating, CYPIR (CYPIR (Cyperus iria); rate 0.0320 kg/ha) | Preemergence herbicidal rating CASOB ([7]; rate 0.0620 kg/ha) | Preemergence herbicidal rating CASOB ([7]; rate 0.1250 kg/ha) | Preemergence herbicidal rating GLXMAW ([10]; rate 0.0620 kg/ha) | herbicidal rating, ORYSAT (rice tolerance) (ORYSAT (Rice, Tebonnet); rate 0.0080 kg/ha) | herbicidal rating, SAGPY ([11]; rate 0.0080 kg/ha) | herbicidal rating, SAGPY ([11]; rate 0.0320 kg/ha) | herbicidal rating, SAGPY ([11]; rate 0.1250 kg/ha)
7.5: Preemergence herbicidal rating ABUTH ([2]; rate 0.1250 kg/ha) | Preemergence herbicidal rating AMBEL ([6]; rate 0.1250 kg/ha)

From patent US6706663B2, “Herbicidal 3-heterocyclic substituted benzisothiazole and benzisoxazole compounds” (Wyeth, priority 2000, dated 2004)
